Reference: patent US12065428B2, “Anti-viral compounds” (Aligos Therapeutics, Inc., priority 2021, dated 2024)
Where two headings read alike, the source gives them in different places.

Key:
[1] = target: T1, SARS-Cov-2 3CLpro (Severe acute respiratory syndrome coronavirus 2, UniProt P0DTD1); experiment: SARS-Cov-2 3CLpro and HRV3C duplex assay (SAMDI-MS): 3CLpro; assay type: biochemical; conditions: 3CLpro, duplex assay, 30 mins preincubation; class symbols; read-out: SARS-Cov-2 IC50
T1 construct: SARS-Cov-2 3CLpro and HRV3C Duplex Assay

[2] = target: T2, HRV3C (Human rhinovirus 14, UniProt P03303); experiment: biochemical
T2 construct: SARS-Cov-2 3CLpro and HRV3C Duplex Assay
T2 sequence (P03303 1538-1719): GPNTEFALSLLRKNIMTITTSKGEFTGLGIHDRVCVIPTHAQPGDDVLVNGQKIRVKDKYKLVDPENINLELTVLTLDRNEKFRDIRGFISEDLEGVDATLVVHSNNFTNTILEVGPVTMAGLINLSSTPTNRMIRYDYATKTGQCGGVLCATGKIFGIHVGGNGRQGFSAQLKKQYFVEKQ

[3] = tested on: human beta-coronavirus OC43; experiment: OC43 coronavirus assay in HeLa cells (cytopathic effect, cell-titer-glo); assay type: cell-based
[4] = target: T3, human cathepsin L (Homo sapiens, UniProt P07711); experiment: Cathepsin L assay (Z-FR-AMC fluorescence); assay type: biochemical; conditions: 10 pM human cathepsin L, 30 mins preincubation; class symbols
T3 construct: purchased R&D Systems
T3 sequence (P07711 114-333): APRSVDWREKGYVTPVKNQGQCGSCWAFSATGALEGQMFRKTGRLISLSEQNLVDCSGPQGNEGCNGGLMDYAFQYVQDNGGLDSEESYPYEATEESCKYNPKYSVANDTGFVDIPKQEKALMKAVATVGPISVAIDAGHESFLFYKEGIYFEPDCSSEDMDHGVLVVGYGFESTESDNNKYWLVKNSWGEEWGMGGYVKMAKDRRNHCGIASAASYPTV
Method: For the cathepsin L assay, 10 pM of human cathepsin L (R&D Systems; Minneapolis, MN) was preincubated for 30 mins with test compounds. Reactions were initiated by the addition of a peptide substrate Z-FR-AMC (final concentration 2 μM, Anaspec; Fremont, CA). Fluorescence was measured at 2-minute intervals for 30 mins using a 355/460 excitation/emission filter module on an Envision plate reader (Perkin Elmer; Waltham, MA). The IC50 values were calculated for each assay by fitting the curves using a four-parameter equation in GraphPad Prism.

[5] = Cytotoxicity plates without OC43 virus in HeLa cells; assay type: cell-based; conditions: human, HeLa cells (uninfected)
Method: The human beta-coronavirus OC43 was purchased from ATCC (Manassas, VA) and propagated using HCT-8 human colorectal epithelial cells (ATCC). HeLa human cervical epithelial cells (ATCC) were used as susceptible host cell lines and were cultured using EMEM media, supplemented with 10% fetal bovine serum (FBS), 1% (v/v) penicillin/streptomycin (P/S), 1% (v/v) HEPES and 1% (v/v) cellgro Glutagro™ supplement (all Corning, Manassas, VA) at 37° C. For the OC43 antiviral assay, 1.5×10^4 HeLa cells per well were plated in 100 μL complete media in white 96-well plates with clear bottoms at 37° C. for up to 24 h to facilitate attachment and allow cells to recover from seeding stresses. Next day, the cell culture medium was removed. Serially diluted compounds in 100 μL assay media (EMEM, 2% FBS, 1% P/S, 1% cellgro Glutagro™ supplement, 1% HEPES) were added to the cells and incubated for 4H at 37° C. in a humidified 5% CO2 incubator. 100 μL of OC43 virus stock was diluted to a concentration known to produce optimal cytopathic effect, inducing 80-90% reduction in cell viability. 96-well plates were incubated for 6 (HeLa) days at 33° C.; each plate contains uninfected control wells as well as virus-infected wells that were not treated with compound. Cytotoxicity plates without the addition of OC43 virus were carried out in parallel. At the end of the incubation period, 100 μL cell culture supernatant was replaced with 100 μL cell-titer-glo reagent (Promega, Madison, WI) and incubated for at least 10 min at rt prior to measuring luminescence. Luminescence was measured on a Perkin Elmer (Waltham, MA) Envision plate reader. Antiviral % inhibition was calculated as follows: [(Compound treated cells infected sample)−(no compound infected control)]/[(Uninfected control)−(no compound infected control)]*100; Using GraphPad (San Diego, CA) prism software version 8.3.1, the antiviral dose-response plot was generated as a sigmoidal fit, log(inhibitor) vs response-variable slope (four parameters) model and the EC50 was calculated which is the predicted compound concentration corresponding to a 50% inhibition of the viral cytopathic effect.

[6] = tested on: SARS-CoV-2-GHB-03021/2020; experiment: microbe, parasite or virus in culture; assay type: cell-based
[7] = HRV3C, duplex assay, 30 mins preincubation, class symbols, read-out: HRV IC50
[8] = Betacoronavirus 1, 144 h, OC43 in HeLa cells, 6 days at 33° C., class symbols, read-out: EC50
[9] = Severe acute respiratory syndrome coronavirus 2, Vero C1008, 96 h; read-out: VeroE6 + CP (EC50)
[10] = Severe acute respiratory syndrome coronavirus 2, Vero C1008, 96 h, read-out: VeroE6 + CP (EC50)

O=C(NC1CC1)C(=O)[C@H](C[C@@H]1CCNC1=O)NC(=O)[C@@H]1CC2(CCN1C(=O)c1csc(-c3ccccc3)n1)CC2 [Compound 40]
IC50 [1]: 200 to 2000 nM | IC50 [2, 7]: 200 to 2000 nM | EC50 [3, 8]: 100 to 1000 nM | IC50 [4]: ≥ 10000 nM | CC50 at 6 days ([5]; numeric bound, unit inferred): > 100000 nM | EC50 [6, 9]: 1000 to 10000 nM

O=C(NC1CC1)C(=O)[C@H](C[C@@H]1CCNC1=O)NC(=O)[C@@H]1CC2(CCN1C(=O)c1nc(-c3ccccc3Cl)cs1)CC2 [Compound 43]
IC50 [1]: 200 to 2000 nM | IC50 ([2]; read-out: HRV IC50): > 10000 nM | EC50 [3, 8]: 100 to 1000 nM | IC50 [4]: ≥ 10000 nM | CC50 at 6 days ([5]; numeric bound, unit inferred): > 100000 nM | EC50 [6, 9]: 1000 to 10000 nM

O=C(NC1CC1)C(=O)[C@H](C[C@@H]1CCNC1=O)NC(=O)[C@@H]1CC2(CCN1C(=O)c1csc3ccccc13)CC2 [Compound 28]
IC50 [1]: < 20 nM | IC50 [2, 7]: 20 to 200 nM | EC50 [3, 8]: 1000 to 10000 nM | IC50 [4]: ≥ 10000 nM | CC50 at 6 days ([5]; class symbols): ≥ 100000 nM | EC50 [6, 9]: < 1000 nM

COc1ccc2cc(C(=O)N3CCC4(CC4)C[C@H]3C(=O)N[C@@H](C[C@@H]3CCNC3=O)C(=O)C(=O)NC3CC3)n(C)c2c1 [Compound 29]
IC50 [1]: < 20 nM | IC50 [2, 7]: 2000 to 20000 nM | EC50 [3, 8]: 100 to 1000 nM | IC50 [4]: ≥ 10000 nM | CC50 at 6 days ([5]; class symbols): ≥ 100000 nM | EC50 [6, 9]: < 1000 nM

Cn1ncc2c1CC(C(=O)N1CCC3(CC3)C[C@H]1C(=O)NC(C[C@@H]1CCNC1=O)C(=O)C(=O)NC1CC1)CC2 (stereo partly drawn) [Compound 14, (5S)—N-(4-(cyclopropylamino)-3,4-dioxo-1-((S)-2-oxopyrrolidin-3-yl)butan-2-yl)-6-(1-methyl-4,5,6,7-tetrahydro-1H-indazole-6-carbonyl)-6-azaspiro[2.5]octane-5-carboxamide]
IC50 [1]: 20 to 200 nM | IC50 [2, 7]: 200 to 2000 nM | EC50 ([3]; Betacoronavirus 1, OC43, HeLa): > 10000 nM | IC50 [4]: ≥ 10000 nM | CC50 at 6 days ([5]; class symbols): ≥ 100000 nM | EC50 [6, 9]: 10000 to 100000 nM

Cn1c(C(=O)N2CCC3(CC3)C[C@H]2C(=O)N[C@@H](C[C@@H]2CCNC2=O)C(=O)C(=O)NC2CC2)cc2ccc(Cl)cc21 [Compound 31]
IC50 [1]: < 20 nM | IC50 [2, 7]: 2000 to 20000 nM | EC50 [3, 8]: 100 to 1000 nM | IC50 [4]: ≥ 10000 nM | CC50 at 6 days ([5]; class symbols): ≥ 100000 nM | EC50 [6, 9]: < 1000 nM

Cc1sc(C(=O)N2CCC3(CC3)C[C@H]2C(=O)N[C@@H](C[C@@H]2CCNC2=O)C(=O)C(=O)NC2CC2)nc1-c1ccccc1 [Compound 38]
IC50 [1]: 200 to 2000 nM | IC50 [2, 7]: 2000 to 20000 nM | EC50 [3, 8]: 100 to 1000 nM | IC50 [4]: ≥ 10000 nM | CC50 at 6 days ([5]; numeric bound, unit inferred): > 100000 nM | EC50 [6, 9]: 1000 to 10000 nM

O=C(NC1CC1)C(=O)C(C[C@@H]1CCNC1=O)NC(=O)[C@@H]1[C@@H]2C[C@@H](CC23CC3)N1C(=O)c1ncc(-c2ccccc2)s1 (stereo partly drawn) [Compound 49, N-cyclopropyl-2-oxo-4-[(3S)-2-oxopyrrolidin-3-yl]-3-[(1R,4S,6S)-5-(5-phenyl-1,3-thiazole-2-carbonyl)-5-azaspiro[bicyclo[2.2.1]heptane-2,1′-cyclopropan]-6-ylformamido]butanamide]
IC50 [1]: 20 to 200 nM | IC50 [2, 7]: 2000 to 20000 nM | EC50 [3, 8]: 100 to 1000 nM | IC50 [4]: ≥ 10000 nM | CC50 at 6 days ([5]; numeric bound, unit inferred): > 100000 nM | EC50 [6, 9]: < 1000 nM

O=C(NC1CC1)C(=O)C(C[C@@H]1CCNC1=O)NC(=O)[C@@H]1[C@@H]2C[C@@H](CC23CC3)N1C(=O)c1cc2ccccc2s1 (stereo partly drawn) [Compound 25, 3-[(1R,4S,6S)-5-(1-benzothiophene-2-carbonyl)-5-azaspiro[bicyclo[2.2.1]heptane-2,1′-cyclopropan]-6-ylformamido]-N-cyclopropyl-2-oxo-4-[(3S)-2-oxopyrrolidin-3-yl]butanamide]
IC50 [1]: 20 to 200 nM | IC50 [2, 7]: 200 to 2000 nM | EC50 [3, 8]: 1000 to 10000 nM | IC50 [4]: ≥ 10000 nM | CC50 at 6 days ([5]; class symbols): ≥ 100000 nM | EC50 [6, 9]: 1000 to 10000 nM

O=C(NC1CC1)C(=O)C(C[C@@H]1CCNC1=O)NC(=O)[C@@H]1CC2(CCN1C(=O)c1noc(-c3ccccc3)n1)CC2 (stereo partly drawn) [Compound 18, N-cyclopropyl-2-oxo-4-[(3S)-2-oxopyrrolidin-3-yl]-3-{[(5S)-6-(5-phenyl-1,2,4-oxadiazole-3-carbonyl)-6-azaspiro[2.5]octan-5-yl]formamido}butanamide]
IC50 [1]: 20 to 200 nM | IC50 [2, 7]: 200 to 2000 nM | EC50 [3, 8]: 1000 to 10000 nM | IC50 [4]: ≥ 10000 nM | CC50 at 6 days ([5]; class symbols): ≥ 100000 nM | EC50 [6, 9]: 1000 to 10000 nM

O=C(NC1CC1)C(=O)C(C[C@@H]1CCNC1=O)NC(=O)[C@@H]1CC2(CCN1C(=O)c1cc3ccccc3n1-c1ccccc1)CC2 (stereo partly drawn) [Compound 22, N-cyclopropyl-2-oxo-4-[(3S)-2-oxopyrrolidin-3-yl]-3-{[(5S)-6-(1-phenylindole-2-carbonyl)-6-azaspiro[2.5]octan-5-yl]formamido}butanamide]
IC50 [1]: < 20 nM | IC50 [2]: 200 to 2000 nM | EC50 [3, 8]: 100 to 1000 nM | IC50 [4]: ≥ 10000 nM | CC50 at 6 days ([5]; class symbols): 10000 to 100000 nM | EC50 [6, 10]: < 1000 nM

Cc1ccc2cc(C(=O)N3CCC4(CC4)C[C@H]3C(=O)N[C@@H](C[C@@H]3CCNC3=O)C(=O)C(=O)NC3CC3)n(C)c2c1 [Compound 30]
IC50 [1]: 20 to 200 nM | IC50 ([2]; read-out: HRV IC50): > 10000 nM | EC50 [3, 8]: 100 to 1000 nM | IC50 [4]: ≥ 10000 nM | CC50 at 6 days ([5]; class symbols): ≥ 100000 nM | EC50 [6, 9]: < 1000 nM

Cn1c(C(=O)N2CCC3(CC3)C[C@H]2C(=O)N[C@@H](C[C@@H]2CCNC2=O)C(=O)C(=O)NC2CC2)nc2ccccc21 [Example 4]
IC50 [1]: 20 to 200 nM | IC50 [2, 7]: 2000 to 20000 nM | EC50 [3, 8]: 1000 to 10000 nM | IC50 [4]: ≥ 10000 nM | CC50 at 6 days ([5]; class symbols): ≥ 100000 nM | EC50 [6, 9]: 1000 to 10000 nM

O=C(NC1CC1)C(=O)[C@H](C[C@@H]1CCNC1=O)NC(=O)[C@@H]1CC2(CCN1C(=O)[C@@H]1C[C@]13CCCc1ccccc13)CC2 (relative stereo) [Compound 34B]
IC50 [1]: 20 to 200 nM | EC50 [3, 8]: 100 to 1000 nM | IC50 [4]: 1000 to 10000 nM | CC50 at 6 days ([5]; class symbols): 10000 to 100000 nM | EC50 [6, 9]: < 1000 nM

O=C(NC1CC1)C(=O)[C@H](C[C@@H]1CCNC1=O)NC(=O)[C@@H]1CC2(CCN1C(=O)[C@H]1C[C@@]13CCCc1ccccc13)CC2 (relative stereo) [Compound 34A, (S)—N—((S)-4-(cyclopropylamino)-3,4-dioxo-1-((S)-2-oxopyrrolidin-3-yl)butan-2-yl)-6-((1S*,2S*)-3′,4′-dihydro-2′H-spiro[cyclopropane-1,1′-naphthalene]-2-carbonyl)-6-azaspiro[2.5]octane-5-carboxamide]
IC50 [1]: 200 to 2000 nM | EC50 [3, 8]: 100 to 1000 nM | IC50 [4]: 1000 to 10000 nM | CC50 at 6 days ([5]; class symbols): ≥ 100000 nM | EC50 [6, 10]: 1000 to 10000 nM
